According to patent US10591478B2, “Methods for molecular classification of fatty liver by high-throughput protein post-translational modifications” (ROSEMAN UNIVERSITY OF HEALTH SCIENCES, priority 2015, dated 2020):
Entries after “also recorded” stand apart in the source; their conditions may differ. Blank lines part the entries; values can stand above or below the molecule they belong to.

Columns and labels:
FOXO1 = test: cIEF immunoassay of FOXO1 pI distribution in HepG2 cells; format: cell-based; settings: 48 hours
Protocol: A NanoPro 1000 cIEF system (Protein Simple, Santa Clara, Calif., USA) was employed for profiling protein PTM. Samples of 400 nl volume were separated by isoelectric focusing using the 96-capillary system, followed by immobilization of the proteins onto the inner capillary walls. Primary and secondary antibodies (Tables 2 and FIG. 6) were introduced into the capillaries, followed by chemiluminescence detection reagents. The incubation times were 110 and 55 min for primary and secondary antibodies, respectively. The separation time was 50 minutes at […]. All samples were loaded in triplicate into capillaries to evaluate the consistency of capillary-to-capillary measurement. Each experiment was performed in triplicate to ensure repeatability. A minimum of nine cIEF measurements were done for each protein per animal group. […]
HepG2 cells were maintained in DMEM media with 25 mM glucose and 10% fetal calf serum. […] Total HepG2 cell extracts were collected and evaluated with 1D Western blots using antibodies against O-GlcNAc.
HepG2 cells were transiently transfected with an expression vector that expressed FOXO1 with a Myc-DDK tag (Cat. No. RC200477, Origene, Rockville, Md.). […] HepG2 cells were treated for 48 hours with 500 μM glucosamine Total HepG2 cell extracts were collected and evaluated with 1D and 2D Western blots using antibodies against FLAG tag. […]

HepG2 cells = test: 1D Western blot of HepG2 total cell extracts with antibodies against O-GlcNAc; format: cell-based; settings: HepG2, 100 μM PUGNAc, 48 hours
Protocol: HepG2 cells were maintained in DMEM media with 25 mM glucose and 10% fetal calf serum. HepG2 cells were treated for 48 hours with 100 μM PUGNAc (Cat. No. A7229, Sigma, St. Louis, Mo.). Total HepG2 cell extracts were collected and evaluated with 1D Western blots using antibodies against O-GlcNAc.
HepG2 cells were first lysed with M-Per lysis buffer (Pierce, Rockford, Ill., USA) in the presence of protease and phosphatase inhibitors. For cIEF immunoassays, total cell lysates were prepared in Premix G2 pH 5-8 separation gradient containing pI standards (ProteinSimple).
HepG2 total cell extracts were analyzed on 10% SDS-polyacrylamide gel. Secondary antibodies were purchased from LI-COR (Lincoln, Nebr., Cat. No. 92668070). Immunoblots were detected with the LI-COR's Odyssey CLx imaging system.

FLAG-tagged FOXO1 = test: 2D Western blot of FLAG-tagged FOXO1 in HepG2 cells; format: cell-based; settings: HepG2 transfected with FLAG-tagged FOXO1, 500 μM glucosamine, 48 hours
Protocol: HepG2 cells were transiently transfected with an expression vector that expressed FOXO1 with a Myc-DDK tag (Cat. No. RC200477, Origene, Rockville, Md.). Transfection reagent was purchased from Life Technologies (Lipofectamine 2000, Cat. No. 11668-019, Grand Island, N.Y. 14702). HepG2 cells were treated for 48 hours with 500 μM glucosamine Total HepG2 cell extracts were collected and evaluated with 1D and 2D Western blots using antibodies against FLAG tag.
2D Western blots of HepG2 total protein extracts were performed by Kendrick Laboratories (Madison, Wis.). Total protein extracts was diluted with 100 ul of SDS Boiling Buffer and microdialyzed overnight using 6-8,000 MWCO membrane at 4° C. Samples were then lyophilized and redissolved to 3.33 mg/ml in diluted SDS boiling Buffer:Urea Sample Buffer before loading. A total of 500 μg of total protein extracts or 150 μl was loaded for isoeletric focusing. Carrier ampholine method of isoelectric focusing was carried out in a glass tube of inner diameter 3.3 mm using 2.0% pH 4-8 mix Servalytes (Serva, Heidelberg, Germany) for 20,000 volt-hrs. After equilibration for 10 minutes in 10% glycerol, 50 mM dithiothreitol, 2.3% SDS and 0.0625 M tris, pH 6.8, each tube gel was sealed to the top of a stacking gel that overlaid a 10% acrylamide slab gel. SDS slab gel electrophoresis was carried out for about 5 hours at 25 mA/gel. […]

LCAD = test: cIEF immunoassay PTM profile of LCAD in liver tissues; format: in vivo, mouse; settings: C57BL/6J+F liver vs control C57BL/6J
Protocol: (§1) C57BL/6 J and UPase1-TG mice were fed a lean diet that provides 4.6 kcal/g (22% by calorific value from fat, 23% from protein, and 55% from carbohydrates; PicoLab Mouse Diet, Catalog No 5058, LabDiet, Brentwood, Mo., USA). C57BL/6 J+LD mice were fed a lean diet for 16 weeks. C57BL/6 J+F mice were fed a lean diet supplemented with fenofibrate (400 mg/kg per day) for 5 days. C57BL/6 J+HFD mice were fed a high-fat diet that provides 5.24 kcal/g (60% from fat, 20% from protein, and 20% from carbohydrates) for 16 weeks (Catalog No D12492, Research Diets Inc, New Brunswick, N.J., USA). C57BL/6 J mice served as a control for C57BL/6 J+LD, UPase1-TG, and C57BL/6 J+F mice. On the other hand, C57BL/6 J+LD mice served as a control for C57BL/6 J+HFD mice. All animal studies were performed in conformity with the Public Health Service Policy on Humane Care and Use of Laboratory Animals and with the approval of the Animal Care and Use Committees at Nevada Cancer Institute, Desert Research Institute, and Touro University Nevada.
(§2) Approximately 500 mg of frozen liver tissues was added to 300 μl of RIPA buffer (Cat. No. 8990, Life Technologies, Grand Island, N.Y. 14702) containing proteinase and phosphatase inhibitors and homogenized twice at 6 seconds duration. […]

PFK1 = test: cIEF immunoassay PTM profile of PFK1 in liver tissues; format: in vivo, mouse; settings: C57BL/6J+F liver vs control C57BL/6J
Protocol: as §1, §2

ChREBP = test: cIEF immunoassay PTM profile of ChREBP in liver tissues; format: in vivo, mouse; settings: C57BL/6J+F liver vs control C57BL/6J
Protocol: as §1, §2

HMGCS2 = test: cIEF immunoassay PTM profile of HMGCS2 in liver tissues; format: in vivo, mouse; settings: C57BL/6J+F liver vs C57BL/6J
Protocol: as §1, §2

[1] = system: liver tissues (hepatic steatosis); test: Assessment of hepatic steatosis with CARS microscopy and Oil Red O histology; format: in vivo, mouse; settings: C57BL/6J+F mice, fenofibrate diet (400 mg/kg per day) for 5 days
Protocol: as §1

Akt = test: cIEF immunoassay phosphorylation profile of Akt in liver tissues; format: in vivo, mouse; settings: C57BL/6J+F liver vs C57BL/6J
Protocol: as §1, §2

ERK1/2 = test: cIEF immunoassay phosphorylation profile of ERK1/2 in liver tissues; format: in vivo, mouse; settings: C57BL/6J+F liver vs control C57BL/6J
Protocol: as §1, §2

LCAT = test: cIEF immunoassay PTM profile of LCAT in liver tissues; format: in vivo, mouse
Protocol: as §1, §2

SMILES: CC(=O)N[C@H]1/C(=N/OC(=O)Nc2ccccc2)O[C@H](CO)[C@@H](O)[C@@H]1O [PUGNAc]
new FOXO1 peak, pI (FOXO1; HepG2, 100 μM PUGNAc): 8.25 pI
overall protein O-linked glycosylation profile of HepG2 total cell extract (HepG2 cells): increased

SMILES: N[C@H]1C(O)O[C@H](CO)[C@@H](O)[C@@H]1O (stereo partly shown) [glucosamine]
FLAG-tagged FOXO1 pI on 2D Western blot (FLAG-tagged FOXO1): shift to FLAG-tagged FOXO1 toward basic pI values; also recorded: additional gel spot at a basic pI value
FOXO1 peaks in cIEF, pI (FOXO1; HepG2, 500 μM glucosamine): > 7.5 pI

Fatty liver classification [1]: severe microvesicular steatosis
SMILES: CC(C)OC(=O)C(C)(C)Oc1ccc(C(=O)c2ccc(Cl)cc2)cc1 [fenofibrate]
glycosylated LCAD isoform, folds higher, areas under the curve (LCAD): 2 folds
reduction of phosphorylated PFK-1 isoform, areas under the curve (PFK1): ~10 folds
reduction of phosphorylated ChREBP isoforms (ChREBP): 60%
PTM increase for HMGCS2, areas under the curve from pI 5.7 to 6.4 (HMGCS2): 2 folds
Akt phosphorylation level, lower compared to control (Akt): approximately 30%
increase of ERK1/2 phosphorylated isoforms, areas under the curve (ERK1/2): ~30%
LCAT observed pI value (LCAT; C57BL/6J+F liver): 5.8 pI
glycosylated LCAT isoforms, folds lower (LCAT; C57BL/6J+F liver vs C57BL/6J): ~10 folds
